From US20050163848A1 (priority 2003, published 2005)
Read-outs that look alike come from different tables or passages of the source.

Legend:
colonic segments = test: Macroscopic observation of excised colonic segments for irritation; type: in vivo; settings: rats, 4 hour after intracolonic bolus 10 mg/rat
[1] = rats; for AUC∞: time zero to infinity, based on 1 mg gabapentin/rat
[2] = rats, normalized to 1 mg gabapentin/kg
in vivo = settings: male, Sprague-Dawley, rat, plasma
[3] = n-octanol/0.05M phosphate buffer, pH 7.4; cited from earlier work
[4] = in water and in both basic and acidic aqueous solutions; cited from earlier work

SMILES | histopathological change of colonic mucosa visible to the naked eye (colonic segments) | AUC∞ ([1]; colonic intubation 10 mg/rat) [ng · h/mL-mg] | AUC∞ ([1]; iv 1 mg/rat) [ng · h/mL-mg] | absorption after intracolonic bolus ([1]; ligated colon, 10 mg/rat, FIG. 5) | AUC (0~4 h) ([2]; duodenal, dose 14.8 ± 0.1 mg/kg) [ng·h/mL/mg] | AUC (0~4 h) ([2]; duodenal, dose 30.6 ± 1.7 mg/kg) [ng·h/mL/mg] | AUC (0~4 h) ([2]; duodenal, dose 59.8 ± 1.7 mg/kg) [ng·h/mL/mg] | AUC (0~4 h) ([2]; iv, dose 1 mg/kg, hour 4 point assumes log-linear decline) [ng·h/mL/mg] | bioavailability (in vivo; iv, 1 mg/rat) [%] | bioavailability (in vivo; other: intracolonic bolus into the ligated colon, 10 mg/rat) [%] | log of the partition coefficient [3] | solubility [4]
CCCCCCCCCCCCOS(=O)(=O)O.NCC1(CC(=O)O)CCCCC1 [gabapentin lauryl sulfate complex] | no histopathological change visible to the naked eye | – | – | – | – | – | – | – | – | – | – | –
NCC1(CC(=O)O)CCCCC1 [gabapentin, 1-(aminomethyl)cyclohexaneacetic acid] | no histopathological change visible to the naked eye | 301.4 | 6090.3 | slow absorption | 1705.2 ± 257.2 | 1205.7 ± 276.3 | 726.1 ± 223.9 | 2727.1 ± 259.1 | 100 | 4.9 | −1.25 | freely soluble
